Assay results taken from the supplement of paper PMC10307832.

What was measured:
Assay in all cases: relative viability (nuclei count vs DMSO), 5 days (fraction); higher = more cells survive
[1] = compound: CN(C)C[C@@H]1CCn2cc(c3ccccc32)C2=C(C(=O)NC2=O)c2cn(c3ccccc23)CCO1 [Ruboxistaurin] + N=C(N)NC(=N)NCCc1ccccc1 [Phenformin] (partner 250 µM)
Procedure, shortened: (§1)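 The day after seeding in 1536-well plates, lung cancer cell lines were treated by pin tool with a single drug, or with a fixed anchor-drug dose together with five library-drug doses (not always all listed) in √10 steps. After 5 days, a combined fix-and-stain solution (final 0.05% Triton X-100, 1% formaldehyde, 1 ug/ml Hoechst) was added. Nuclei counted on 4× images gave relative viability as treated counts over vehicle counts, reported as the median of duplicate plates.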

[2] = compound: CN(C)C[C@@H]1CCn2cc(c3ccccc32)C2=C(C(=O)NC2=O)c2cn(c3ccccc23)CCO1 [Ruboxistaurin] + CS(=O)(=O)N1CCN(Cc2cc3nc(-c4cccc5[nH]ncc45)nc(N4CCOCC4)c3s2)CC1 [Pictilisib] (partner 1 µM)
Procedure, shortened: as §1

[3] = compound: CN(C)C[C@@H]1CCn2cc(c3ccccc32)C2=C(C(=O)NC2=O)c2cn(c3ccccc23)CCO1 [Ruboxistaurin] + Cc1cc(Nc2cc(N3CCN(C)CC3)nc(Sc3ccc(NC(=O)C4CC4)cc3)n2)n[nH]1 [Tozasertib] (partner 0.1 µM)
Procedure, shortened: as §1

[4] = compound: CN(C)C[C@@H]1CCn2cc(c3ccccc32)C2=C(C(=O)NC2=O)c2cn(c3ccccc23)CCO1 [Ruboxistaurin] + Cc1nc(NC(=O)N2CCC[C@H]2C(N)=O)sc1-c1ccnc(C(C)(C)C(F)(F)F)c1 [Alpelisib] (partner 2 µM)
Procedure, shortened: as §1

[5] = compound: CN(C)C[C@@H]1CCn2cc(c3ccccc32)C2=C(C(=O)NC2=O)c2cn(c3ccccc23)CCO1 [Ruboxistaurin] + O=C(CCCCCCC(=O)Nc1ccccc1)NO [Vorinostat] (partner 1 µM)
Procedure, shortened: as §1

Cell Line	relative viability ([1]; first compound 0.08 µM)	relative viability ([1]; first compound 0.8 µM)	relative viability ([1]; first compound 2.53 µM)	relative viability ([1]; first compound 8 µM)	relative viability ([2]; first compound 0.08 µM)	relative viability ([2]; first compound 0.8 µM)	relative viability ([2]; first compound 2.53 µM)	relative viability ([2]; first compound 8 µM)	relative viability ([3]; first compound 0.08 µM)	relative viability ([3]; first compound 0.8 µM)	relative viability ([3]; first compound 2.53 µM)	relative viability ([3]; first compound 8 µM)	relative viability ([4]; first compound 0.08 µM)	relative viability ([4]; first compound 0.8 µM)	relative viability ([4]; first compound 2.53 µM)	relative viability ([4]; first compound 8 µM)	relative viability ([5]; first compound 0.08 µM)	relative viability ([5]; first compound 0.8 µM)	relative viability ([5]; first compound 2.53 µM)	relative viability ([5]; first compound 8 µM)
NCI-H2405	0.427	0.391	0.414	0.38	0.561	0.411	0.478	0.33	0.764	0.613	0.726	0.722	0.936	0.681	0.775	0.835	1.08	0.988	0.97	0.982
NCI-H3122	0.409	0.372	0.413	0.379	0.7	0.398	0.564	0.436	0.426	0.43	0.426	0.334	0.837	0.562	0.737	0.587	1.14	0.948	1.03	1.3
PC-3 [JPC-3]	0.471	0.47	0.492	0.517	0.883	0.678	0.742	0.814	0.91	0.852	0.852	0.841	1.02	0.956	1.01	0.976	0.895	0.917	0.839	0.837
PC-14	0.675	0.568	0.536	0.556	0.788	0.63	0.689	0.402	0.596	0.518	0.546	0.532	1.03	0.887	0.881	1	0.892	0.668	0.785	0.648
RERF-LC-KJ	0.458	0.426	0.443	0.406	0.508	0.499	0.472	0.359	0.515	0.401	0.49	0.462	0.854	0.798	0.761	0.744	0.663	0.623	0.675	0.644
SK-LU-1	0.61	0.495	0.628	0.526	0.55	0.55	0.561	0.426	0.414	0.33	0.323	0.265	1.07	0.81	0.921	0.782	0.946	0.722	0.776	0.657
SK-MES-1	0.678	0.607	0.658	0.639	0.417	0.3	0.323	0.316	0.948	0.808	0.887	0.789	1	0.782	0.837	0.801	1.11	1.03	1.03	0.95
SW 1573	0.408	0.141	0.445	0.282	0.468	0.39	0.542	0.37	0.256	0.19	0.168	0.124	0.752	0.688	0.72	0.706	0.756	0.413	0.809	0.698
UMC-11	0.321	0.33	0.315	0.354	0.892	0.596	0.728	0.509	0.203	0.211	0.248	0.177	0.966	0.896	0.95	0.743	0.41	0.377	0.388	0.289
